Results on two molecules are retold here after PMC4245164 (ACS Chemical Biology, 2014).

This experiment has as its target NLuc (Oplophorus gracilirostris, UniProt Q9GV45, A31E/A60N/A81I/F95D/I117V/K70R/L54V/L99Q/M102K/N193R/P142E/Q151K/Q38R/Q45L/V71I/Y165I). The experiment can be described thus: Biochemical NLuc enzyme assay with S16 secNLuc cell culture medium.

Sequence of NLuc (Q9GV45 28-196 with the stated changes): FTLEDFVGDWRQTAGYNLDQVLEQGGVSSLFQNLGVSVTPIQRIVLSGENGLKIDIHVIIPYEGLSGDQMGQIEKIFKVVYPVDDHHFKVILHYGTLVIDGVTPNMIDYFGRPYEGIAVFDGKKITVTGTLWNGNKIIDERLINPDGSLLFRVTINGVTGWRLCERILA

For the molecule `COC(=O)C1=C(C)NC(C)=C(C(=O)OC(C)C)C1c1cccc2nonc12` (centres unmarked) [isradipine], it took 6 µM to reach half-maximal inhibition (IC50).
For the molecule `CCOC(=O)C1=C(C)NC(C)=C(C(=O)OC)C1c1cccc([N+](=O)[O-])c1` (centres unmarked) [nitrendipine], 6 µM corresponded to half-maximal inhibition (IC50).
